Measured values: patent US20220251141A1, “IMMUNOMODULATORS” (Bristol-Myers Squibb Company, priority 2019, published 2022)
Where a name gives a salt, the structure may show the parent alone. Numbered stars: 1 amine (or outer) side, 2 acyl side, 3 side chain; on linkers, the order of the positions; unused ones are H or OH. Bridge positions count the residues as written; N and C are the ends. Square brackets hold non-standard residues; d marks the D form. Peptide text beside a SMILES is read from it. * marks the point of attachment. Trp(1-CH2CO2Me) = COC(=O)Cn1cc(C[C@H](N)C(=O)O)c2ccccc21; Trp(1-CH2COOH) = N[C@@H](Cc1cn(CC(=O)O)c2ccccc12)C(=O)O; X5 = CN(C)S(=O)(=O)NCC[C@H](N[*:1])C(=O)[*:2]; X4 = CN(C)S(=O)(=O)NC[C@H](N[*:1])C(=O)[*:2]; Trp(1-Me) = Cn1cc(C[C@H](N)C(=O)O)c2ccccc21; X12 = CNC(=S)NCC[C@H](N[*:1])C(=O)[*:2]; Phe(4-F) = N[C@@H](Cc1ccc(F)cc1)C(=O)O; X11 = CNC(=S)NC[C@H](N[*:1])C(=O)[*:2]; Hyp = O=C(O)[C@@H]1C[C@@H](O)CN1; NMeNle = CCCC[C@H](NC)C(=O)O; Pen = CC(C)(S)[C@H](N)C(=O)O; Ethoxycarbonyl = CCOC(=O)*; NMeC = CN[C@@H](CS)C(=O)O; Pip = O=C(O)[C@@H]1CCCCN1; NMeA = CN[C@@H](C)C(=O)O; Dab = NCC[C@H](N)C(=O)O; Dap = NC[C@H](N)C(=O)O; Boc = CC(C)(C)OC(=O)*; Piv = CC(C)(C)C(=O)*; Tfa = O=C(C(F)(F)F)*; X3 = O=C(OCCF)*

target: T1, PD-1/PD-L1 (Homo sapiens, UniProt Q9NZQ7); test: PD-1/PD-L1 Homogenous Time-Resolved Fluorescence (HTRF) binding assay; conditions: PD-L1-His 10 nM final, PD-1-Ig 20 nM final; inhibitors pre-incubated with PD-L1-His for 15 m
T1 construct: TVMV protease site linker (C); made in house; host or cells: HEK293T cells
Description: The ability of the compounds of formula (I) to bind to PD-L1 was investigated using a PD-1/PD-L1 Homogenous Time-Resolved Fluorescence (HTRF) binding assay.
The interaction of PD-1 and PD-L1 can be assessed using soluble, purified preparations of the extracellular domains of the two proteins. The PD-1 and PD-L1 protein extracellular domains were expressed as fusion proteins with detection tags, for PD-1, the tag was the Fc portion of Immunoglobulin (PD-1-Ig) and for PD-L1 it was the 6 histidine motif (PD-L1-His). All binding studies were performed in an HTRF assay buffer consisting of dPBS supplemented with 0.1% […] bovine serum albumin and 0.05% (v/v) Tween-20. For the h/PD-L1-His binding assay, inhibitors were pre-incubated with PD-L1-His (10 nM final) for 15 m in 4 μl of assay buffer, followed by addition of PD-1-Ig (20 nM final) in 1 μl of assay buffer and further incubation for 15 m. HTRF detection was achieved using europium cryptate-labeled anti-Ig (1 nM final) and allophycocyanin (APC) labeled anti-His (20 nM final). Antibodies were diluted in HTRF detection buffer and 5 μl was dispensed on top of the binding reaction. The reaction mixture was allowed to equilibrate for 30 minutes and the resulting signal (665 nm/620 nm ratio) was obtained using an EnVision fluorometer. Additional binding assays were established between the human proteins PD-1-Ig/PD-L2-His (20 & 5 nM, respectively) and CD80-His/PD-L1-Ig (100 & 10 nM, respectively).
Recombinant Proteins: Human PD-1 (25-167) with a C-terminal human Fc domain of immunoglobulin G (Ig) epitope tag [hPD-1 (25-167)-3S-IG] and human PD-L1 (18-239) with a C-terminal His epitope tag [hPD-L1(18-239)-TVMV-His] were expressed in HEK293T cells and purified sequentially by Protein A affinity chromatography and size exclusion chromatography. Human PD-L2-His and CD80-His was obtained through commercial sources.
Table 3 lists the IC50 values for representative examples of this disclosure measured in the PD-1/PD-L1 Homogenous Time-Resolved Fluorescence (HTRF) binding assay.

Row | Compound | IC50
1 | CCCC[C@H]1C(=O)N(C)[C@@H](CCCC)C(=O)N[C@@H](CCC(=O)O)C(=O)N[C@H](C(N)=O)CSCC(=O)N[C@@H](Cc2ccc(F)cc2)C(=O)N2CCCC[C@H]2C(=O)N[C@@H](CC(N)=O)C(=O)N2CCC[C@H]2C(=O)N[C@@H](CNC(=O)C(C)(C)C)C(=O)N[C@@H](CC(C)C)C(=O)N2C[C@H](O)C[C@H]2C(=O)N[C@@H](Cc2c[nH]c3ccccc23)C(=O)N[C@@H](CCNC(=O)C(C)(C)C)C(=O)N[C@@H](Cc2cn(C)c3ccccc23)C(=O)N1C [Example 20230] ({CH2CO}-[Phe(4-F)][Pip]NP[Dap](Piv)L[Hyp]W[Dab](Piv)[Trp(1-Me)][NMeNle][NMeNle]EC-NH2; thioether N-14) | 16.6 nM
2 | CCCC[C@H]1C(=O)N(C)[C@@H](CCCC)C(=O)N[C@@H](CC(C)C)C(=O)N[C@H](C(=O)NCC(N)=O)CSCC(=O)N[C@@H](Cc2ccc(O)cc2)C(=O)N(C)[C@@H](C)C(=O)N[C@@H](CC(N)=O)C(=O)N2CCC[C@H]2C(=O)N[C@@H](CNC(=O)OCC)C(=O)N[C@@H](CC(C)C)C(=O)N2C[C@H](O)C[C@H]2C(=O)N[C@@H](Cc2c[nH]c3ccccc23)C(=O)N[C@@H](CCNC(=O)OCC)C(=O)N[C@@H](Cc2cn(CC(=O)OC)c3ccccc23)C(=O)N1C [Example 1010] ({CH2CO}-Y[NMeA]NP[Dap](Ethoxycarbonyl)L[Hyp]W[Dab](Ethoxycarbonyl)[Trp(1-CH2CO2Me)][NMeNle][NMeNle]LCG-NH2; thioether N-14) | 3.9 nM
3 | CCCC[C@H]1C(=O)N(C)[C@@H](CCCC)C(=O)N[C@@H](CCC(=O)O)C(=O)N[C@H](C(N)=O)CSCC(=O)N[C@@H](Cc2ccc(F)cc2)C(=O)N2CCCC[C@H]2C(=O)N[C@@H](CC(N)=O)C(=O)N2CCC[C@H]2C(=O)N[C@@H](CNC(=O)C(C)(C)C)C(=O)N[C@@H](CC(C)C)C(=O)N2C[C@H](O)C[C@H]2C(=O)N[C@@H](Cc2c[nH]c3ccccc23)C(=O)N[C@@H](CCN)C(=O)N[C@@H](Cc2cn(C)c3ccccc23)C(=O)N1C [Example 20270] ({CH2CO}-[Phe(4-F)][Pip]NP[Dap](Piv)L[Hyp]W[Dab][Trp(1-Me)][NMeNle][NMeNle]EC-NH2; thioether N-14) | 43.2 nM
4 | CCCC[C@H]1C(=O)N(C)[C@@H](CCCC)C(=O)N[C@@H](CC(C)C)C(=O)N[C@H](C(=O)NCC(N)=O)CSCC(=O)N[C@@H](Cc2ccc(O)cc2)C(=O)N(C)[C@@H](C)C(=O)N[C@@H](CC(N)=O)C(=O)N2CCC[C@H]2C(=O)N[C@@H](CNC(=O)OCCF)C(=O)N[C@@H](CC(C)C)C(=O)N2C[C@H](O)C[C@H]2C(=O)N[C@@H](Cc2c[nH]c3ccccc23)C(=O)N[C@@H](CCNC(=O)OCCF)C(=O)N[C@@H](Cc2cn(CC(=O)OC)c3ccccc23)C(=O)N1C [Example 1012] ({CH2CO}-Y[NMeA]NP[Dap](X3)L[Hyp]W[Dab](X3)[Trp(1-CH2CO2Me)][NMeNle][NMeNle]LCG-NH2; thioether N-14) | 19 nM
5 | CCCC[C@H]1C(=O)N(C)[C@@H](CCCC)C(=O)N[C@@H](CC(C)C)C(=O)N(C)[C@H](C(N)=O)CSCC(=O)N[C@@H](Cc2ccc(F)cc2)C(=O)N2CCCC[C@H]2C(=O)N[C@@H](CC(=O)N(C)C)C(=O)N2CCC[C@H]2C(=O)N[C@@H](Cc2c[nH]cn2)C(=O)N[C@@H](CC(C)C)C(=O)N2C[C@H](O)C[C@H]2C(=O)N[C@@H](Cc2c[nH]c3ccccc23)C(=O)N[C@@H](CO)C(=O)N[C@@H](Cc2cn(CC(=O)O)c3ccccc23)C(=O)N1C [Example 10002] ({CH2CO}-[Phe(4-F)][Pip]D(NMe2)PHL[Hyp]WS[Trp(1-CH2COOH)][NMeNle][NMeNle]L[NMeC]-NH2; thioether N-14) | 52 nM
6 | CCCC[C@H]1C(=O)N(C)[C@@H](CCCC)C(=O)N[C@@H](CC(C)C)C(=O)N[C@H](C(=O)NCC(N)=O)CSCC(=O)N[C@@H](Cc2ccc(O)cc2)C(=O)N(C)[C@@H](C)C(=O)N[C@@H](CC(N)=O)C(=O)N2CCC[C@H]2C(=O)N[C@@H](CNC(=O)C(F)(F)F)C(=O)N[C@@H](CC(C)C)C(=O)N2C[C@H](O)C[C@H]2C(=O)N[C@@H](Cc2c[nH]c3ccccc23)C(=O)N[C@@H](CCNC(=O)C(F)(F)F)C(=O)N[C@@H](Cc2cn(CC(=O)O)c3ccccc23)C(=O)N1C [Example 1007] ({CH2CO}-Y[NMeA]NP[Dap](Tfa)L[Hyp]W[Dab](Tfa)[Trp(1-CH2COOH)][NMeNle][NMeNle]LCG-NH2; thioether N-14) | 3.3 nM
7 | CCCC[C@H]1C(=O)N(C)[C@@H](CCCC)C(=O)N[C@@H](CC(C)C)C(=O)N[C@H](C(N)=O)CSCC(=O)N[C@@H](Cc2ccc(F)cc2)C(=O)N2CCCC[C@H]2C(=O)N[C@@H](CC(=O)O)C(=O)N2CCC[C@H]2C(=O)N[C@@H](CNC(=O)OC(C)(C)C)C(=O)N[C@@H](CC(C)C)C(=O)N2C[C@H](O)C[C@H]2C(=O)N[C@@H](Cc2c[nH]c3ccccc23)C(=O)N[C@@H](CCNC(=O)OC(C)(C)C)C(=O)N[C@@H](Cc2cn(CC(=O)O)c3ccccc23)C(=O)N1C [Example 20020] ({CH2CO}-[Phe(4-F)][Pip]DP[Dap](Boc)L[Hyp]W[Dab](Boc)[Trp(1-CH2COOH)][NMeNle][NMeNle]LC-NH2; thioether N-14) | 6.9 nM
8 | CCCC[C@H]1C(=O)N(C)[C@@H](CCCC)C(=O)N[C@@H](CC(C)C)C(=O)N[C@H](C(=O)NCC(N)=O)CSCC(=O)N[C@@H](Cc2ccc(O)cc2)C(=O)N(C)[C@@H](C)C(=O)N[C@@H](CC(N)=O)C(=O)N2CCC[C@H]2C(=O)N[C@@H](CNS(=O)(=O)N(C)C)C(=O)N[C@@H](CC(C)C)C(=O)N2C[C@H](O)C[C@H]2C(=O)N[C@@H](Cc2c[nH]c3ccccc23)C(=O)N[C@@H](CCNS(=O)(=O)N(C)C)C(=O)N[C@@H](Cc2cn(CC(=O)O)c3ccccc23)C(=O)N1C [Example 1022] ({CH2CO}-Y[NMeA]NP[X4]L[Hyp]W[X5][Trp(1-CH2COOH)][NMeNle][NMeNle]LCG-NH2; thioether N-14) | 15 nM

The remaining molecules from weak to strong by IC50, led by results:

Row | IC50 | Compound
9 | 22.9 nM | CCCC[C@H]1C(=O)N(C)[C@@H](CCCC)C(=O)N[C@@H](CC(C)C)C(=O)N[C@H](C(N)=O)CSCC(=O)N[C@@H](Cc2ccc(F)cc2)C(=O)N2CCCC[C@H]2C(=O)N[C@@H](CC(=O)O)C(=O)N2CCC[C@H]2C(=O)N[C@@H](CNC(=O)C(C)(C)C)C(=O)N[C@@H](CC(C)C)C(=O)N2C[C@H](O)C[C@H]2C(=O)N[C@@H](Cc2c[nH]c3ccccc23)C(=O)N[C@@H](CCNC(=O)C(C)(C)C)C(=O)N[C@@H](Cc2cn(CC(=O)O)c3ccccc23)C(=O)N1C [Example 20250] ({CH2CO}-[Phe(4-F)][Pip]DP[Dap](Piv)L[Hyp]W[Dab](Piv)[Trp(1-CH2COOH)][NMeNle][NMeNle]LC-NH2; thioether N-14)
10 | 16.4 nM | CCCC[C@H]1C(=O)N(C)[C@@H](CCCC)C(=O)N[C@@H](CC(C)C)C(=O)N[C@H](C(N)=O)C(C)(C)SCC(=O)N[C@@H](Cc2ccc(F)cc2)C(=O)N2CCCC[C@H]2C(=O)N[C@@H](CC(=O)O)C(=O)N2CCC[C@H]2C(=O)N[C@@H](CNC(=O)C(C)(C)C)C(=O)N[C@@H](CC(C)C)C(=O)N2C[C@H](O)C[C@H]2C(=O)N[C@@H](Cc2c[nH]c3ccccc23)C(=O)N[C@@H](CCN)C(=O)N[C@@H](Cc2cn(C)c3ccccc23)C(=O)N1C [Example 20210] ({CH2CO}-[Phe(4-F)][Pip]DP[Dap](Piv)L[Hyp]W[Dab][Trp(1-Me)][NMeNle][NMeNle]L[Pen]-NH2; thioether N-14)
11 | 11 nM | CCCC[C@H]1C(=O)N(C)[C@@H](CCCC)C(=O)N[C@@H](CC(C)C)C(=O)N(C)[C@H](C(N)=O)CSCC(=O)N[C@@H](Cc2ccc(F)cc2)C(=O)N2CCCC[C@H]2C(=O)N[C@@H](CC(=O)O)C(=O)N2CCC[C@H]2C(=O)N[C@@H](Cc2c[nH]cn2)C(=O)N[C@@H](CC(C)C)C(=O)N2C[C@H](O)C[C@H]2C(=O)N[C@@H](Cc2c[nH]c3ccccc23)C(=O)N[C@@H](CO)C(=O)N[C@@H](Cc2cn(CC(=O)O)c3ccccc23)C(=O)N1C [Example 10004] ({CH2CO}-[Phe(4-F)][Pip]DPHL[Hyp]WS[Trp(1-CH2COOH)][NMeNle][NMeNle]L[NMeC]-NH2; thioether N-14)
12 | 2 nM | CCCC[C@H]1C(=O)N(C)[C@@H](CCCC)C(=O)N[C@@H](CC(C)C)C(=O)N[C@H](C(=O)NCC(N)=O)CSCC(=O)N[C@@H](Cc2ccc(O)cc2)C(=O)N(C)[C@@H](C)C(=O)N[C@H](CC(N)=O)C(=O)N2CCC[C@H]2C(=O)N[C@@H](CNC(=S)NC)C(=O)N[C@@H](CC(C)C)C(=O)N2C[C@H](O)C[C@H]2C(=O)N[C@@H](Cc2c[nH]c3ccccc23)C(=O)N[C@@H](CCNC(=S)NC)C(=O)N[C@@H](Cc2cn(CC(=O)O)c3ccccc23)C(=O)N1C [Example 1027] ({CH2CO}-Y[NMeA][dN]P[X11]L[Hyp]W[X12][Trp(1-CH2COOH)][NMeNle][NMeNle]LCG-NH2; thioether N-14)
